# Source: patent publication US20250186456A1, “PYRIMIDINE-FUSED CYCLIC COMPOUND AND PREPARATION METHOD AND USE THEREOF” (Genfleet Therapeutics (Shanghai) Inc., priority 2021, published 2025)
# Where two headings read alike, the source gives them in different places.
# Assays:
# Type in all cases: cell-based, human
# [1] = system: p-ERK in AGS cells (KRAS G12D mutation); experiment: Cell p-ERK assay (HTRF, Advance ERK phospho-T202/Y204 kit); settings: Homo sapiens, read-out: AGS p-ERK IC50
# How it was run: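 AGS cells (endogenous KRAS G12D) seeded at ~20000 cells/well overnight, then treated 3 h with 3.16-fold compound dilutions, 0.1% DMSO final. Lysates assayed for phospho-T202/Y204 ERK by HTRF after 4 h antibody incubation; inhibition vs DMSO and blank, IC50 by four-parameter fit.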
# [2] = system: AGS cells (KRAS G12D); experiment: Cell proliferation inhibition assay, 3D, CellTiter-Glo 3D, AGS; settings: Homo sapiens, 120 h, AGS 3D sphere model, 5 days incubation
# How it was run: (§1)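 Spheroids (800 AsPC-1 or 400 AGS cells/well; RPMI-1640 or F-12K with 10% FBS) formed overnight, then were dosed on day 2 with a 3.16-fold series at 0.1% DMSO. After 5 days, viability was read by CellTiter-Glo 3D luminescence, and IC50 came from four-parameter fits of inhibition versus DMSO control and medium blank.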
# [3] = system: AsPC-1 cells (KRAS G12D mutation); experiment: Cell proliferation inhibition assay, 3D, CellTiter-Glo 3D, AsPC-1; settings: Homo sapiens, ASPC1, 120 h, AsPC-1 3D sphere model, 5 days incubation
# How it was run: as §1
# [4] = AGS cells, 3 hours incubation with compound, HTRF
SMILES,"IC50 [1, 4] [nM]",IC50 [2] [nM],IC50 [3] [nM],"IC50 ([1]; AGS, 3 h) [nM]"
"C#Cc1cccc2cccc(-c3nc4c5c(nc(OCC67CC(=C)CN6CC(=C)C7)nc5c3F)N3C[C@H]5CC[C@H](N5)[C@H]3[C@H](C)O4)c12 [Example Z551, (58,5aS,6S,9R)-12-((2,6-dimethylenetetrahydro-1H-pyrrolizin-7a (5H)-yl)methoxy)-2-(8-ethynylnaphthalen-1-yl)-1-fluoro-5-methyl-5a,6,7,8,9,10-hexahydro-5H-4-oxa-3,10a,11,13,14-pentaaza-6,9-methanonaphtho[1,8-ab]heptalene]",61,45.4,170,
"C#Cc1c(F)ccc2cccc(-c3nc4c5c(nc(OCC67CC(=C)CN6[C@@H]6C[C@@H]6C7)nc5c3F)N3C[C@H]5CC[C@H](N5)[C@H]3[C@H](C)O4)c12 (stereo partly drawn) [Example Z603, (5S,5aS,6S,9R)-2-(8-Ethynyl-7-Fluoronaphthalen-1-Yl)-1-Fluoro-5-Methyl-12-(((1aR,6aR)-4-Methylenehexahydrocyclopropa[b]Pyrrolizin-5a (3H)-Yl)Methoxy)-5a,6,7,8,9,10-Hexahydro-5H-4-Oxa-3,10a,11,13,14-Pentaaza-6,9-Methanonaphtho[1,8-Ab]Heptalene]",64.1,110,217,
"C#Cc1c(F)ccc2cc(O)cc(-c3nc4c5c(nc(OCC67CC(=C)CN6CC(=C)C7)nc5c3F)N3C[C@H]5CC[C@H](N5)[C@H]3[C@H](C)O4)c12 [Example Z553, 4-((5S,5aS,6S,9R)-12-((2,6-dimethylenetetrahydro-1H-pyrrolizin-7a (5H)-yl)methoxy)-1-fluoro-5-methyl-5a,6,7,8,9,10-hexahydro-5H-4-oxa-3,10a, 11,13,14-pentaaza-6,9-methanonaphtho[1,8-ab]heptalen-2-yl)-5-ethynyl-6-fluoronaphthalen-2-ol]",0.48,0.53,9.13,
"C#Cc1c(F)ccc2cc(O)cc(-c3nc4c5c(nc(OCC6(CO)CC6)nc5c3F)N3C[C@H]5CC[C@H](N5)[C@H]3[C@H](C)O4)c12 [Example Z708, 5-ethynyl-6-fluoro-4-((5S,5aS,6S,9R)-1-fluoro-12-((1-(hydroxymethyl)cyclopropyl)methoxy)-5-methyl-5a,6,7,8,9,10-hexahydro-5H-4-oxa-3,10a, 11,13,14-pentaaza-6,9-methanonaphtho[1,8-ab]heptalene-2-yl) naphthalen-2-ol]",,176,941,38.5
"C#Cc1cccc2cc(N)cc(-c3nc4c5c(nc(OC[C@@H]6CC(F)(F)CN6C)nc5c3F)N3C[C@H]5CC[C@H](N5)[C@H]3[C@H](C)O4)c12 [Example Z724, 4-((5S,5aS,6S,9R)-12-(((S)-4,4-Difluoro-1-Methylpyrrolidin-2-Yl)Methoxy)-1-Fluoro-5-Methyl-5a,6,7,8,9,10-Hexahydro-5H-4-Oxa-3,10a,11,13,14-Pentaaza-6,9-Methanonaphtho[1,8-Ab]Heptalene-2-Yl)-5-Ethynylnaphthalen-2-Amine]",45.3,92,196,
"C#Cc1c(F)ccc2cccc(-c3nc4c5c(nc(OCC67CC(=C)CN6CC(F)C7)nc5c3F)N3C[C@H]5CC[C@H](N5)[C@H]3[C@H](C)O4)c12 (stereo partly drawn) [Example Z607, (5S,5aS,6S,9R)-2-(8-ethynyl-7-fluoronaphthalen-1-yl)-1-fluoro-12-((2-fluoro-6-methylenetetrahydro-1H-pyrrolizin-7a (5H)-yl)methoxy)-5-methyl-5a,6,7,8,9,10-hexahydro-5H-4-oxa-3,10a,11,13,14-pentaaza-6,9-methanonaphtho[1,8-ab]heptalene]",24.4,81.2,101,
"C#Cc1c(F)ccc2cccc(-c3nc4c5c(nc(OC[C@]67C[C@@H](F)CN6CCC7=C)nc5c3F)N3C[C@H]5CC[C@H](N5)[C@H]3[C@H](C)O4)c12 (single isomer, unassigned) [Example Z689]",6.61,19.3,17.4,
